Measurements published in patent publication US20050181376A1, “Antisense modulation of microsomal triglyceride transfer protein expression” (ISIS Pharmaceuticals, Inc., priority 2001, published 2005).
Strand notation (5' to 3'): a small letter for the sugar, then the base; units joined by * are phosphorothioate-linked, units joined directly phosphodiester-linked; [ ] holds rarer units or linkages, { } end groups; capitals alone tell only the bases. e = 2'-O-(2-methoxyethyl) (MOE); [5mC] = 5-methylcytosine; d = 2'-deoxy (DNA)

Tested on: human microsomal triglyceride transfer protein mRNA
Test: Antisense inhibition of human microsomal triglyceride transfer protein mRNA levels, quantitative real-time PCR; also: test concentration or dose not given here
Conditions: averages from two experiments

Substance	% INHIB (inhibition of human microsomal triglyceride transfer protein mRNA levels)
144437 (eG*eT*eA*e[5mC]*eT*dG*dG*dT*dT*dT*d[5mC]*d[5mC]*dA*dG*dG*e[5mC]*e[5mC]*eA*eG*e[5mC]; antisense) [compound 144437]	32%
144434 (e[5mC]*e[5mC]*e[5mC]*eT*eG*dG*dA*d[5mC]*d[5mC]*dT*d[5mC]*dT*dA*dT*dA*eT*eT*eG*eG*e[5mC]; antisense) [compound 144434]	0%
144412 (eG*e[5mC]*eG*eG*eT*dA*dG*d[5mC]*d[5mC]*d[5mC]*dA*d[5mC]*dG*d[5mC]*dT*eG*eT*e[5mC]*eT*eT; antisense) [compound 144412]	34%
144436 (eG*eA*eG*eG*eA*dG*dT*d[5mC]*d[5mC]*dA*d[5mC]*dT*dG*dT*dG*eA*eT*eG*eT*e[5mC]; antisense) [compound 144436]	29%
144427 (eT*eA*eA*eG*eG*dT*d[5mC]*dT*dT*d[5mC]*dT*dT*d[5mC]*dA*d[5mC]*e[5mC]*eT*e[5mC]*eA*eT; antisense) [compound 144427]	8%
144435 (eG*eA*eT*eA*e[5mC]*d[5mC]*dA*d[5mC]*dA*dA*dG*d[5mC]*dT*dA*dA*eA*e[5mC]*eT*e[5mC]*e[5mC]; antisense) [compound 144435]	0%
144441 (e[5mC]*eA*eT*eG*e[5mC]*d[5mC]*dA*d[5mC]*dA*dT*dT*dG*dT*dG*dT*e[5mC]*e[5mC]*e[5mC]*eT*eT; antisense) [compound 144441]	60%
CCAGTTGTGTGACCTTTAAC (antisense e[5mC]*e[5mC]*eA*eG*eT*dT*dG*dT*dG*dT*dG*dA*d[5mC]*d[5mC]*dT*eT*eT*eA*eA*e[5mC]) [ISIS 144410]	at least 30%
AGTGTCCCAGTGATGATCAT (antisense eA*eG*eT*eG*eT*d[5mC]*d[5mC]*d[5mC]*dA*dG*dT*dG*dA*dT*dG*eA*eT*e[5mC]*eA*eT) [ISIS 144423]	at least 30%
144423 (eA*eG*eT*eG*eT*d[5mC]*d[5mC]*d[5mC]*dA*dG*dT*dG*dA*dT*dG*eA*eT*e[5mC]*eA*eT; antisense) [compound 144423]	41%
144439 (e[5mC]*eG*e[5mC]*eT*eG*dG*dA*dA*dG*dT*dA*d[5mC]*dT*dA*dT*e[5mC]*e[5mC]*eG*eG*e[5mC]; antisense) [compound 144439]	52%
GTACTGGTTTCCAGGCCAGC (antisense eG*eT*eA*e[5mC]*eT*dG*dG*dT*dT*dT*d[5mC]*d[5mC]*dA*dG*dG*e[5mC]*e[5mC]*eA*eG*e[5mC]) [ISIS 144437]	at least 30%
TCAACTGCATCCAGTGCCCA (antisense eT*e[5mC]*eA*eA*e[5mC]*dT*dG*d[5mC]*dA*dT*d[5mC]*d[5mC]*dA*dG*dT*eG*e[5mC]*e[5mC]*e[5mC]*eA) [ISIS 144408]	at least 30%
144411 (eA*e[5mC]*eG*eT*eG*dA*dG*d[5mC]*dT*dT*dG*dT*dA*d[5mC]*dA*eG*e[5mC]*e[5mC]*eG*eG; antisense) [compound 144411]	28%
144415 (eG*eT*eG*eG*eT*dT*d[5mC]*d[5mC]*dA*dG*dA*dG*d[5mC]*dT*dT*eA*eA*e[5mC]*eT*eG; antisense) [compound 144415]	0%
144443 (eG*eT*eA*eG*e[5mC]*dA*dT*dA*d[5mC]*dT*dG*d[5mC]*dA*dT*dA*eT*eA*e[5mC]*e[5mC]*e[5mC]; antisense) [compound 144443]	51%
TCATATTGACCAGCAATCCT (antisense eT*e[5mC]*eA*eT*eA*dT*dT*dG*dA*d[5mC]*d[5mC]*dA*dG*d[5mC]*dA*eA*eT*e[5mC]*e[5mC]*eT) [ISIS 144409]	at least 30%
144428 (eG*e[5mC]*eA*eG*e[5mC]*dT*dG*d[5mC]*dA*dG*d[5mC]*dA*dG*dT*dG*e[5mC]*eG*e[5mC]*eA*e[5mC]; antisense) [compound 144428]	19%
144448 (e[5mC]*e[5mC]*e[5mC]*eG*eT*d[5mC]*dA*dT*dG*d[5mC]*dT*dT*dA*dA*dG*eG*eA*eA*eG*eT) [compound 144448]	49%
144430 (e[5mC]*eT*eA*eT*eG*dT*dA*dG*d[5mC]*d[5mC]*dA*dG*dT*dG*dT*eA*eG*eG*e[5mC]*eA; antisense) [compound 144430]	0%
144421 (eA*eT*eG*eG*e[5mC]*dT*dT*d[5mC]*dT*dA*dA*dT*dG*dA*dG*eT*e[5mC]*eT*eG*eA; antisense) [compound 144421]	13%

Substance	% INHIB (inhibition of human microsomal triglyceride transfer protein mRNA levels)
144425 (e[5mC]*e[5mC]*e[5mC]*eT*eT*d[5mC]*dT*d[5mC]*d[5mC]*dT*dG*d[5mC]*dT*dT*d[5mC]*eT*eG*e[5mC]*eA*eT; antisense) [compound 144425]	22%
144432 (eT*eA*e[5mC]*e[5mC]*eG*dT*dG*dA*dA*dG*dA*d[5mC]*d[5mC]*dA*dG*e[5mC]*e[5mC]*eT*eT*e[5mC]; antisense) [compound 144432]	0%
144420 (eG*eA*eG*eG*eT*dG*dA*d[5mC]*dA*dG*d[5mC]*dA*dT*d[5mC]*d[5mC]*eA*e[5mC]*e[5mC]*eA*eG; antisense) [compound 144420]	21%
144433 (eA*eT*eT*eA*eA*dG*dG*d[5mC]*dT*dT*d[5mC]*d[5mC]*dA*dG*dT*e[5mC]*e[5mC]*eT*eT*eG; antisense) [compound 144433]	0%
144440 (eA*eA*eT*eA*eT*d[5mC]*dA*d[5mC]*dA*dG*dG*dT*d[5mC]*dA*dG*eT*eT*eT*e[5mC]*eA; antisense) [compound 144440]	40%
CGCTGGAAGTACTATCCGGC (antisense e[5mC]*eG*e[5mC]*eT*eG*dG*dA*dA*dG*dT*dA*d[5mC]*dT*dA*dT*e[5mC]*e[5mC]*eG*eG*e[5mC]) [ISIS 144439]	at least 30%
144408 (eT*e[5mC]*eA*eA*e[5mC]*dT*dG*d[5mC]*dA*dT*d[5mC]*d[5mC]*dA*dG*dT*eG*e[5mC]*e[5mC]*e[5mC]*eA; antisense) [compound 144408]	30%
144422 (e[5mC]*e[5mC]*eT*eG*eG*dA*dG*dG*dA*dT*dA*dA*dT*dG*d[5mC]*eT*eG*e[5mC]*eT*eG; antisense) [compound 144422]	37%
144413 (eG*eA*eT*eT*e[5mC]*d[5mC]*dT*d[5mC]*d[5mC]*dA*dT*dA*dG*dT*dA*eA*eG*eG*e[5mC]*e[5mC]; antisense) [compound 144413]	91%
144409 (eT*e[5mC]*eA*eT*eA*dT*dT*dG*dA*d[5mC]*d[5mC]*dA*dG*d[5mC]*dA*eA*eT*e[5mC]*e[5mC]*eT; antisense) [compound 144409]	31%
CCTGGAGGATAATGCTGCTG (antisense e[5mC]*e[5mC]*eT*eG*eG*dA*dG*dG*dA*dT*dA*dA*dT*dG*d[5mC]*eT*eG*e[5mC]*eT*eG) [ISIS 144422]	at least 30%
144426 (eG*eA*eG*e[5mC]*eA*dG*dT*dG*dG*dT*dA*dG*d[5mC]*d[5mC]*dA*eG*eG*eT*eG*eG; antisense) [compound 144426]	22%
AATATCACAGGTCAGTTTCA (antisense eA*eA*eT*eA*eT*d[5mC]*dA*d[5mC]*dA*dG*dG*dT*d[5mC]*dA*dG*eT*eT*eT*e[5mC]*eA) [ISIS 144440]	at least 30%
144418 (eA*e[5mC]*eA*eG*eT*dG*dG*d[5mC]*dT*d[5mC]*dT*dG*dG*dA*dA*eG*eA*e[5mC]*e[5mC]*eT; antisense) [compound 144418]	0%
144449 (eA*eT*eG*eT*eG*d[5mC]*d[5mC]*dT*dT*d[5mC]*dT*dA*d[5mC]*d[5mC]*dT*eT*eA*eA*eG*eG) [compound 144449]	35%
144417 (eG*e[5mC]*eT*eG*e[5mC]*dA*dG*d[5mC]*d[5mC]*dT*dG*d[5mC]*dT*dT*dT*e[5mC]*e[5mC]*eA*eG*eA; antisense) [compound 144417]	9%
144419 (eT*eG*eG*eT*eG*dG*dA*d[5mC]*d[5mC]*dG*d[5mC]*d[5mC]*dA*dG*dA*eG*e[5mC]*eT*e[5mC]*e[5mC]; antisense) [compound 144419]	0%
144445 (eG*eA*eT*eT*eT*dG*dA*dG*dA*dG*dA*dG*dG*dT*dA*eT*eA*eA*eG*eT; antisense) [compound 144445]	18%
144431 (e[5mC]*eG*eA*eG*eT*dA*dG*dA*dG*dA*dA*dT*dG*dT*d[5mC]*eT*eA*eG*eG*e[5mC]; antisense) [compound 144431]	26%
144410 (e[5mC]*e[5mC]*eA*eG*eT*dT*dG*dT*dG*dT*dG*dA*d[5mC]*d[5mC]*dT*eT*eT*eA*eA*e[5mC]; antisense) [compound 144410]	38%
144414 (eG*eA*eT*eT*eA*dG*dA*dT*dG*dA*dA*dG*dG*dA*dG*e[5mC]*eG*eT*eA*eG; antisense) [compound 144414]	0%
